Assay results taken from ChEMBL document CHEMBL1150338, “Prediction and identification of drug interactions with the human ATP-binding cassette transporter multidrug-resistance associated protein 2 (MRP2; ABCC2)” (J Med Chem, 2008).

Target: MRP2 (ABCC2) (Homo sapiens, UniProt Q92887)
Test: in vitro
[1] = probe estradiol-17-beta-glucuronide
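Further: Inside-out membrane vesicles from Sf9 insect cells expressing human MRP2, measuring uptake of the estradiol glucuronide substrate, expressed as percent of untreated control.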

Chain of MRP2 (ABCC2) (Q92887 whole entry): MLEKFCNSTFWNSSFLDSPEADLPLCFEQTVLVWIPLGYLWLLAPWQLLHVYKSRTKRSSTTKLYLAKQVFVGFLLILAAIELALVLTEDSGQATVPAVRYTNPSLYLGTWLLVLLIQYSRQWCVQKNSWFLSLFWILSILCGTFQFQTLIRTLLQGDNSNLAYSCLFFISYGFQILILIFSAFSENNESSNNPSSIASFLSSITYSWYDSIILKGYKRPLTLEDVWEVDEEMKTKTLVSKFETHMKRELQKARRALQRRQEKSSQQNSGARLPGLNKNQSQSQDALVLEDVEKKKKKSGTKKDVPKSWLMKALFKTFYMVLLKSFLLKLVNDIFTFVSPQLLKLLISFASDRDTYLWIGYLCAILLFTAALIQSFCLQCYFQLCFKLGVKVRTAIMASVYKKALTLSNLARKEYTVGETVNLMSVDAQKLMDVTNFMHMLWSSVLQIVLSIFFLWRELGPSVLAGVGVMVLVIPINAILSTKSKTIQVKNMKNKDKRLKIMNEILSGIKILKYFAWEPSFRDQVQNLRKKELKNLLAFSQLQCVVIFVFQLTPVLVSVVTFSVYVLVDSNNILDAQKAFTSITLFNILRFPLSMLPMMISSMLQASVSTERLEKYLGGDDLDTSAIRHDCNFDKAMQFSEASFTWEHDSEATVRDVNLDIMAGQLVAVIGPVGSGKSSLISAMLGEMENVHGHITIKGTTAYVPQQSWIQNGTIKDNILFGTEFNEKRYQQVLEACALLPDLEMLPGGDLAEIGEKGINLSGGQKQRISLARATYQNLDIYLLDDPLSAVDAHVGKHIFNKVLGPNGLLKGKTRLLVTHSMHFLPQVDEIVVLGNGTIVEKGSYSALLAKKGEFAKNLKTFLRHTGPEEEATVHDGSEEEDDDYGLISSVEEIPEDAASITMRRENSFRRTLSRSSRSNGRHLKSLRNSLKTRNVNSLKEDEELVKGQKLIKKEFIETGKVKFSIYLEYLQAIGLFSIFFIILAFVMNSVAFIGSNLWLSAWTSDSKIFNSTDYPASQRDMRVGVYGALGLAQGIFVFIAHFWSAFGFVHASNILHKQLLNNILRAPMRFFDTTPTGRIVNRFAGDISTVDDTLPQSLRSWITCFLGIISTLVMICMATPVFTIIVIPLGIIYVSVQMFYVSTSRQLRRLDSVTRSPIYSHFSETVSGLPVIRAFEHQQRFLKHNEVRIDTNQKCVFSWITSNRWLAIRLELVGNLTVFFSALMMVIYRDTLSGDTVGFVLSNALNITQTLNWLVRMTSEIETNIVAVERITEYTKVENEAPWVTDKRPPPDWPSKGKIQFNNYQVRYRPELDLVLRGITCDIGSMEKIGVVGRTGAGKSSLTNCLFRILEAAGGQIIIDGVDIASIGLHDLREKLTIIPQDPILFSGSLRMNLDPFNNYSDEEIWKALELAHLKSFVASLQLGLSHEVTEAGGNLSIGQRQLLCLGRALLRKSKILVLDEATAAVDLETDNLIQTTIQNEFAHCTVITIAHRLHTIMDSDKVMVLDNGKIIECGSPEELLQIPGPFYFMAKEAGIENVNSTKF
Description: Effect on human MRP2-mediated estradiol-17-beta-glucuronide transport in Sf9 cells inverted membrane vesicles relative to control

SMILES	activity [1] [%]	activity (sf9) [%]
CC(C)(C)NC(=O)[C@@H]1C[C@@H]2CCCC[C@@H]2CN1C[C@@H](O)[C@H](Cc1ccccc1)NC(=O)[C@H](CC(N)=O)NC(=O)c1ccc2ccccc2n1	41	–
CC(=O)[C@@]1(O)CC[C@H]2[C@@H]3C[C@H](C)C4=CC(=O)CC[C@]4(C)[C@H]3CC[C@@]21C	111	–
CC1=C(CC(=O)O)c2cc(F)ccc2/C1=C\c1ccc([S+](C)[O-])cc1 (stereo not given)	151	–
CCN(CC)Cc1cc(Nc2ccnc3cc(Cl)ccc23)ccc1O	60	–
CCC[C@@]1(CCc2ccccc2)CC(O)=C([C@H](CC)c2cccc(NS(=O)(=O)c3ccc(C(F)(F)F)cn3)c2)C(=O)O1	88	–
C[n+]1ccc(-c2ccccc2)cc1	72	–
CCOc1ccc(-c2nc3cc(-c4nc5cc(N6CCN(C)CC6)ccc5[nH]4)ccc3[nH]2)cc1	70	–
COc1cc2c(cc1OC)CN(CCc1ccc(NC(=O)c3cccc4c(=O)c5cccc(OC)c5[nH]c34)cc1)CC2	39	–
COc1ccc(/C=C/C(=O)Nc2ccccc2C(=O)O)cc1OC	98	–
COc1ccc2c3c([nH]c2c1)[C@H](CC(C)C)N1C(=O)[C@H](CCC(=O)OC(C)(C)C)NC(=O)[C@@H]1C3	–	73
CC(=O)Nc1ccc(S(=O)(=O)Nc2ccc([N+](=O)[O-])cc2)cc1	116	–
CC(=O)Oc1ccc2c(c1)Oc1cc(OC(C)=O)ccc1C21OC(=O)c2cc(C(=O)O)ccc21	7	–
O=C(O)[C@H]1O[C@@H](Oc2ccc([N+](=O)[O-])cc2)[C@H](O)[C@@H](O)[C@@H]1O	99	–
Cc1ccc(N(CC(=O)O)CC(=O)O)c(OCCOc2cc(-c3c4cc(Cl)c(=O)cc-4oc4cc(O)c(Cl)cc34)ccc2N(CC(=O)O)CC(=O)O)c1	9	–
COc1ccc(CCN(C)CCCC(C#N)(c2ccc(OC)c(OC)c2)C(C)C)cc1OC (stereo not given)	56	–
CC(C)(C)NC(=O)[C@@H]1CN(Cc2cccnc2)CCN1C[C@@H](O)CC(Cc1ccccc1)C(=O)N[C@H]1c2ccccc2C[C@H]1O (single isomer, unassigned)	93	–
C#CC1(O)CC[C@H]2[C@@H]3CCc4cc(O)ccc4[C@H]3CC[C@@]21C (single isomer, unassigned) [ETHINYL ESTRADIOL]	53	–
O=C1c2c(O)cc(O)cc2O[C@H](c2ccc(O)c(O)c2)[C@H]1O [(+)-TAXIFOLIN]	108	–
CC(C)N(CC[C@](C(N)=O)(c1ccccc1)c1ccccn1)C(C)C [(S)-DISOPYRAMIDE]	104	–
CC(=O)Nc1ccc(O[C@@H]2O[C@H](C(=O)O)[C@@H](O)[C@H](O)[C@H]2O)cc1 [ACETAMINOPHEN GLUCURONIDE]	150	–
Nc1ncnc2c1ncn2CCOCP(=O)(O)O [ADEFOVIR]	96	–
NC12CC3CC(CC(C3)C1)C2 [AMANTADINE]	101	–
N=C(N)NC(=O)c1nc(Cl)c(N)nc1N [AMILORIDE]	82	–
Nc1ccc(C(=O)NCC(=O)O)cc1 [AMINOHIPPURIC ACID]	46	–
CCCCc1oc2ccccc2c1C(=O)c1cc(I)c(OCCN(CC)CC)c(I)c1 [AMIODARONE]	–	66
CN(C)CCC=C1c2ccccc2CCc2ccccc21 [AMITRIPTYLINE]	51	–
Cc1cc(=O)n(-c2ccccc2)n1C [ANTIPYRINE]	84	–

SMILES	activity [1] [%]	activity (sf9) [%]
O=c1cc(-c2ccc(O)cc2)oc2cc(O)cc(O)c12 [APIGENIN]	94	–
COc1ccc(CCN2CCC(Nc3nc4ccccc4n3Cc3ccc(F)cc3)CC2)cc1 [ASTEMIZOLE]	36	–
CNCC[C@@H](Oc1ccccc1C)c1ccccc1 [ATOMOXETINE]	109	–
CN1[C@@H]2CC[C@H]1C[C@@H](OC(=O)C(CO)c1ccccc1)C2 (stereo not given in full) [ATROPINE]	59	–
O=C(O)[C@H]1O[C@@H](Oc2cc3oc(-c4ccccc4)cc(=O)c3c(O)c2O)[C@H](O)[C@@H](O)[C@@H]1O [BAICALIN]	34	–
CCc1oc2ccccc2c1C(=O)c1cc(Br)c(O)c(Br)c1 [BENZBROMARONE]	11	–
COc1ccc(-c2coc3cc(O)cc(O)c3c2=O)cc1 [BIOCHANIN]	84	–
CCCC1O[C@@H]2C[C@H]3[C@@H]4CCC5=CC(=O)C=C[C@]5(C)[C@H]4[C@@H](O)C[C@]3(C)[C@]2(C(=O)CO)O1 (stereo not given in full) [BUDESONIDE]	150	–
CC(NC(C)(C)C)C(=O)c1cccc(Cl)c1 (stereo not given) [BUPROPION]	106	–
C[C@H](CS)C(=O)N1CCC[C@H]1C(=O)O [CAPTOPRIL]	104	–
NC(=O)N1c2ccccc2C=Cc2ccccc21 [CARBAMAZEPINE]	86	–
C[N+](C)(C)C[C@H](O)CC(=O)[O-] [CARNITINE]	84	–
CC1=C(C(=O)O)N2C(=O)[C@@H](NC(=O)[C@H](N)c3ccc(O)cc3)[C@H]2SC1 [CEFADROXIL]	68	–
Cn1nnnc1SCC1=C(C(=O)O)N2C(=O)[C@@H](NC(=O)[C@H](O)c3ccccc3)[C@H]2SC1 [CEFAMANDOLE]	63	–
Cc1ccc(-c2cc(C(F)(F)F)nn2-c2ccc(S(N)(=O)=O)cc2)cc1 [CELECOXIB]	46	–
COc1ccc2c(c[n+](C)c3c4cc5c(cc4ccc23)OCO5)c1OC [CHELERYTHRINE CHLORIDE]	43	–
C[C@H](CCC(=O)O)[C@H]1CC[C@H]2[C@@H]3[C@H](O)C[C@@H]4C[C@H](O)CC[C@]4(C)[C@H]3CC[C@]12C [CHENODIOL]	101	–
CCN(CC)CCCC(C)Nc1ccnc2cc(Cl)ccc12 (stereo not given) [CHLOROQUINE]	–	102
CN(C)CCCN1c2ccccc2Sc2ccc(Cl)cc21 [CHLORPROMAZINE]	–	58
CN(C)CC/C=C1/c2ccccc2Sc2ccc(Cl)cc21 [CHLORPROTHIXENE]	25	–
C[C@H](CCC(=O)O)[C@H]1CC[C@H]2[C@@H]3[C@H](O)C[C@@H]4C[C@H](O)CC[C@]4(C)[C@H]3C[C@H](O)[C@]12C [CHOLIC ACID]	112	–
O=c1cc(-c2ccccc2)oc2cc(O)cc(O)c12 [CHRYSIN]	110	–
CN/C(=N/CCSCc1nc[nH]c1C)NC#N [CIMETIDINE]	–	91
Clc1ccccc1C(c1ccccc1)(c1ccccc1)n1ccnc1 [CLOTRIMAZOLE]	14	–
COc1cc2c(c(OC)c1OC)-c1ccc(OC)c(=O)cc1[C@@H](NC(C)=O)CC2 [COLCHICINE]	101	–
CNCCCN1c2ccccc2CCc2ccccc21 [DESIPRAMINE]	57	–
COc1ccc2c(c1)[C@]13CCCC[C@@H]1[C@H](C2)N(C)CC3 [DEXTROMETHORPHAN]	57	–

SMILES	activity [1] [%]	activity (sf9) [%]
O=C(O)Cc1ccccc1Nc1c(Cl)cccc1Cl [DICLOFENAC]	198	–
CC/C(=C(/CC)c1ccc(O)cc1)c1ccc(O)cc1 [DIETHYLSTILBESTROL]	11	–
C[C@H]1O[C@@H](O[C@H]2[C@@H](O)C[C@H](O[C@H]3[C@@H](O)C[C@H](O[C@H]4CC[C@@]5(C)[C@H](CC[C@@H]6[C@@H]5C[C@@H](O)[C@]5(C)[C@@H](C7=CC(=O)OC7)CC[C@]65O)C4)O[C@@H]3C)O[C@@H]2C)C[C@H](O)[C@@H]1O [DIGOXIN]	99	–
COc1ccc([C@@H]2Sc3ccccc3N(CCN(C)C)C(=O)[C@@H]2OC(C)=O)cc1 [DILTIAZEM]	40	–
OCCN(CCO)c1nc(N2CCCCC2)c2nc(N(CCO)CCO)nc(N3CCCCC3)c2n1 [DIPYRIDAMOLE]	42	–
COc1cccc2c1C(=O)c1c(O)c3c(c(O)c1C2=O)C[C@@](O)(C(=O)CO)C[C@@H]3O[C@H]1C[C@H](N)[C@H](O)[C@H](C)O1 [DOXORUBICIN]	–	87
CC(C)[C@@]1(NC(=O)[C@@H]2C=C3c4cccc5[nH]cc(c45)C[C@H]3N(C)C2)O[C@@]2(O)[C@@H]3CCCN3C(=O)[C@H](Cc3ccccc3)N2C1=O [ERGOCRISTINE]	60	–
C#Cc1cccc(Nc2ncnc3cc(OCCOC)c(OCCOC)cc23)c1 [ERLOTINIB]	47	–
CC[C@H]1OC(=O)[C@H](C)[C@@H](O[C@H]2C[C@@](C)(OC)[C@@H](O)[C@H](C)O2)[C@H](C)[C@@H](O[C@@H]2O[C@H](C)C[C@H](N(C)C)[C@H]2O)[C@](C)(O)C[C@@H](C)C(=O)[C@H](C)[C@@H](O)[C@]1(C)O [ERYTHROMYCIN]	89	–
C[C@]12CC[C@@H]3c4ccc(O)cc4CC[C@H]3[C@@H]1CC[C@@H]2O [ESTRADIOL]	123	–
C[C@]12CC[C@@H]3c4ccc(OS(=O)(=O)O)cc4CC[C@H]3[C@@H]1CCC2=O [ESTRONE SULFURIC ACID]	300	–
COc1cc([C@@H]2c3cc4c(cc3[C@@H](O[C@@H]3O[C@@H]5CO[C@@H](C)O[C@H]5[C@H](O)[C@H]3O)[C@H]3COC(=O)[C@H]23)OCO4)cc(OC)c1O [ETOPOSIDE]	110	–
CC1=C(CC(=O)O)c2cc(F)ccc2/C1=C\c1ccc(S(C)(=O)=O)cc1 [EXISULIND]	113	–
CCOC(=O)C1=C(C)NC(C)=C(C(=O)OC)C1c1cccc(Cl)c1Cl (stereo not given) [FELODIPINE]	86	–
CC(NCCC(c1ccccc1)c1ccccc1)c1ccccc1 (stereo not given) [FENDILINE]	5	–
CC(C)OC(=O)C(C)(C)Oc1ccc(C(=O)c2ccc(Cl)cc2)cc1 [FENOFIBRATE]	46	–
CC(C)(C(=O)O)c1ccc(C(O)CCCN2CCC(C(O)(c3ccccc3)c3ccccc3)CC2)cc1 (stereo not given) [FEXOFENADINE]	97	–
Cc1onc(-c2c(F)cccc2Cl)c1C(=O)N[C@@H]1C(=O)N2[C@@H]1SC(C)(C)[C@@H]2C(=O)O [FLOXACILLIN]	73	–
O=C1OC2(c3ccc(O)cc3Oc3cc(O)ccc32)c2ccccc21 [FLUORESCEIN]	82	–
CC(C(=O)O)c1ccc(-c2ccccc2)c(F)c1 (stereo not given) [FLURBIPROFEN]	108	–
CC(C)C(=O)Nc1ccc([N+](=O)[O-])c(C(F)(F)F)c1 [FLUTAMIDE]	126	–
NS(=O)(=O)c1cc(C(=O)O)c(NCc2ccco2)cc1Cl [FUROSEMIDE]	118	–
CC(=O)O[C@H]1C[C@@]2(C)[C@@H](C[C@@H](O)[C@H]3[C@@]4(C)CC[C@@H](O)[C@@H](C)[C@@H]4CC[C@@]32C)/C1=C(\CCC=C(C)C)C(=O)O [FUSIDIC ACID]	72	–
COc1cc2ncnc(Nc3ccc(F)c(Cl)c3)c2cc1OCCCN1CCOCC1 [GEFITINIB]	–	74
O=c1c(-c2ccc(O)cc2)coc2cc(O)cc(O)c12 [GENISTEIN]	101	–
Cc1ccc(S(=O)(=O)NC(=O)NN2CC3CCCC3C2)cc1 (stereo not given) [GLICLAZIDE]	174	–
